Experimental data: patent US20240025884A1 (Dong-A ST Co., Ltd., priority 2022, published 2024)

Biological target: GCN2 (Homo sapiens (Human), UniProt Q9P2K8)
Test: GCN2 Biochemical Assay (TR-FRET, GFP-eIF2S1 substrate phosphorylation)
Settings: read-out: IC50 (GCN2 Inhibitory Activity)
Method in brief: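 In-house GCN2 (1.6 nM 2× stock) phosphorylates GFP-eIF2S1 (50 nM 2× stock) with ATP (0.2 mM 2× stock) and tRNA, pH 7.5, 70 min at room temperature; 10-point 3.16-fold compound series. TR-FRET detection with Tb-anti-phospho antibody, 2–3 h, Ex 340/Em 490/520 nm; artifact plate spiked with phospho-substrate.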

Chain of GCN2 (Q9P2K8 whole entry): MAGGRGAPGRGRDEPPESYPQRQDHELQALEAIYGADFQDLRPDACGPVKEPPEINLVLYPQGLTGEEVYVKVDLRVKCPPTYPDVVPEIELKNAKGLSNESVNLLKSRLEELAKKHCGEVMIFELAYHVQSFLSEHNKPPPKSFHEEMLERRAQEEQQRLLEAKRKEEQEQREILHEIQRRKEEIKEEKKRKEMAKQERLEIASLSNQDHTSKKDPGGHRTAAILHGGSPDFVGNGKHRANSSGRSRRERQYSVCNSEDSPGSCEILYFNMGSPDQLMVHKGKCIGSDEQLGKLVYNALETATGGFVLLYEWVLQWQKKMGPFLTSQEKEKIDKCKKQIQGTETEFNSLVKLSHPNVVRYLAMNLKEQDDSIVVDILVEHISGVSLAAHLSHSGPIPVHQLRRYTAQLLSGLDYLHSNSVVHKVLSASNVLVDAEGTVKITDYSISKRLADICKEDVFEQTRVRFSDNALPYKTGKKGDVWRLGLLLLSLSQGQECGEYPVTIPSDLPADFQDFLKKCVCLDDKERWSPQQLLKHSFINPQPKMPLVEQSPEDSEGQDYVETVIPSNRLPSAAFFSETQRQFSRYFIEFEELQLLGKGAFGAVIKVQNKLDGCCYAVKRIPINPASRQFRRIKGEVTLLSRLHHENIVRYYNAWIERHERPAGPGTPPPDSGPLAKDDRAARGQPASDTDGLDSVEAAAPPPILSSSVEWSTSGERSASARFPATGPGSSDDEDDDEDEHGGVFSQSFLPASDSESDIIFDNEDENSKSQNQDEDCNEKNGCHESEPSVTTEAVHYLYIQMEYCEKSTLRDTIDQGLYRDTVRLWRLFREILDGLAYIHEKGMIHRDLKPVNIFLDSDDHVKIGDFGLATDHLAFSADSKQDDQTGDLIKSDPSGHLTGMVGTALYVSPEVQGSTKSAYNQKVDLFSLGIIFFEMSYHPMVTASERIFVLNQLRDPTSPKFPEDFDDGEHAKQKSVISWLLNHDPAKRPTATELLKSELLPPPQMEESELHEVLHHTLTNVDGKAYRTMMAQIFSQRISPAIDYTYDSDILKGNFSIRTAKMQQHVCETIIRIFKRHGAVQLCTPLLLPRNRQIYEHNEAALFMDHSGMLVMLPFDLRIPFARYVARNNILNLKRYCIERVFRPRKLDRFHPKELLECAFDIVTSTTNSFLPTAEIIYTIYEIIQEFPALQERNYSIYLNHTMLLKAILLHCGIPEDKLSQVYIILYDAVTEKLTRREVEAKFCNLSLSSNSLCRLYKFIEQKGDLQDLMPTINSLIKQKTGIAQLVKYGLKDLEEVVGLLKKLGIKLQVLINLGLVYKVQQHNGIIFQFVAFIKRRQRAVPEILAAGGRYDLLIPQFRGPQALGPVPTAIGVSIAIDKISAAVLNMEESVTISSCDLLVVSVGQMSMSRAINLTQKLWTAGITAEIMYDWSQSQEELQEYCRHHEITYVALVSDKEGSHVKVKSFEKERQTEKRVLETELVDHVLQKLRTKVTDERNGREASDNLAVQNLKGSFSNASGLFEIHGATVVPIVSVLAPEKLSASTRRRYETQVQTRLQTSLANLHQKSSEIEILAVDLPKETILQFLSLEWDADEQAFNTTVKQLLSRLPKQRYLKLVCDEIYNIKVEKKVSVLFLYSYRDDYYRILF

Row | SMILES | IC50 [nM]
1 | Cc1cnccc1-c1cccc2c1CN(c1cccc3c(-c4nc(Nc5cc(C)n(C)n5)ncc4C)c[nH]c13)C2=O [Example 455, 2-(3-(2-((1,5-dimethyl-1H-pyrazol-3-yl)amino)-5-methylpyrimidin-4-yl)-1H-indol-7-yl)-4-(3-methylpyridin-4-yl)isoindolin-1-one] | < 10
2 | Cc1cnc(Nc2cc(C)n(C)n2)nc1-c1c[nH]c2c(N3Cc4c(cccc4-c4cc(N)ncn4)C3=O)cccc12 [Example 456, 4-(6-aminopyrimidin-4-yl)-2-(3-(2-((1,5-dimethyl-1H-pyrazol-3-yl)amino)-5-methylpyrimidin-4-yl)-1H-indol-7-yl)isoindolin-1-one] | < 10
3 | Cc1cnc(Nc2cc(C)n(C)n2)nc1-c1c[nH]c2c(N3Cc4c(cccc4-c4cccc5[nH]ncc45)C3=O)cccc12 [Example 457, 2-(3-(2-((1,5-dimethyl-1H-pyrazol-3-yl)amino)-5-methylpyrimidin-4-yl)-1H-indol-7-yl)-4-(1H-indazol-4-yl)isoindolin-1-one] | < 10
4 | Cc1cnc(Nc2cc(C)n(C)n2)nc1-c1c[nH]c2c(N3Cc4c(cccc4-c4ccccc4C(=O)O)C3=O)cccc12 [Example 458, 2-(2-(3-(2-((1,5-dimethyl-1H-pyrazol-3-yl)amino)-5-methylpyrimidin-4-yl)-1H-indol-7-yl)-1-oxoisoindolin-4-yl)benzoic acid] | 10 to 100
5 | Cc1cnc(Nc2cc(C)n(C)n2)nc1-c1c[nH]c2c(N3Cc4c(cccc4-c4ccc(CO)cc4)C3=O)cccc12 [Example 460, 2-(3-(2-((1,5-dimethyl-1H-pyrazol-3-yl)amino)-5-methylpyrimidin-4-yl)-1H-indol-7-yl)-4-(4-(hydroxymethyl)phenyl)isoindolin-1-one] | < 10
6 | Cc1cnc(Nc2cc(C)n(C)n2)nc1-c1c[nH]c2c(N3Cc4c(cccc4-c4ccsc4)C3=O)cccc12 [Example 461, 2-(3-(2-((1,5-dimethyl-1H-pyrazol-3-yl)amino)-5-methylpyrimidin-4-yl)-1H-indol-7-yl)-4-(thiophen-3-yl)isoindolin-1-one] | 10 to 100
7 | Cc1cnc(Nc2cc(C)n(C)n2)nc1-c1c[nH]c2c(N3Cc4c(cccc4-c4ccccc4N)C3=O)cccc12 [Example 462, 4-(2-aminophenyl)-2-(3-(2-((1,5-dimethyl-1H-pyrazol-3-yl)amino)-5-methylpyrimidin-4-yl)-1H-indol-7-yl)isoindolin-1-one] | 10 to 100
8 | COC(=O)c1ccccc1-c1cccc2c1CN(c1cccc3c(-c4nc(Nc5cc(C)n(C)n5)ncc4C)c[nH]c13)C2=O [Example 463, methyl 2-(2-(3-(2-((1,5-dimethyl-1H-pyrazol-3-yl)amino)-5-methylpyrimidin-4-yl)-1H-indol-7-yl)-1-oxoisoindolin-4-yl)benzoate] | 100 to 1000
9 | Cc1cnc(Nc2cc(C)n(C)n2)nc1-c1c[nH]c2c(N3Cc4c(cccc4C4=CCN(C)CC4)C3=O)cccc12 [Example 464, 2-(3-(2-((1,5-dimethyl-1H-pyrazol-3-yl)amino)-5-methylpyrimidin-4-yl)-1H-indol-7-yl)-4-(i-methyl-1,2,3,6-tetrahydropyridin-4-yl)isoindolin-1-one] | < 10
10 | Cc1cnc(Nc2cc(C)n(C)n2)nc1-c1c[nH]c2c(N3Cc4c(cccc4C4=CCN(S(C)(=O)=O)CC4)C3=O)cccc12 [Example 465, 2-(3-(2-((1,5-dimethyl-1H-pyrazol-3-yl)amino)-5-methylpyrimidin-4-yl)-1H-indol-7-yl)-4-(1-(methylsulfonyl)-1,2,3,6-tetrahydropyridin-4-yl)isoindolin-1-one] | < 10
11 | CC(=O)N1CC=C(c2cccc3c2CN(c2cccc4c(-c5nc(Nc6cc(C)n(C)n6)ncc5C)c[nH]c24)C3=O)CC1 [Example 466, 4-(1-acetyl-1,2,3,6-tetrahydropyridin-4-yl)-2-(3-(2-((1,5-dimethyl-1H-pyrazol-3-yl)amino)-5-methylpyrimidin-4-yl)-1H-indol-7-yl)isoindolin-1-one] | < 10
12 | Cc1cnc(Nc2cc(C)n(C)n2)nc1-c1c[nH]c2c(N3Cc4c(cccc4C4=CCN(C(N)=O)CC4)C3=O)cccc12 [Example 467, 4-(2-(3-(2-((1,5-dimethyl-1H-pyrazol-3-yl)amino)-5-methylpyrimidin-4-yl)-1H-indol-7-yl)-1-oxoisoindolin-4-yl)-3,6-dihydropyridine-1(2H)-carboxamide] | < 10
13 | Cc1cnc(Nc2cc(C)n(C)n2)nc1-c1c[nH]c2c(N3Cc4c(cccc4C4=CCS(=O)(=O)CC4)C3=O)cccc12 [Example 468, 2-(3-(2-((1,5-dimethyl-1H-pyrazol-3-yl)amino)-5-methylpyrimidin-4-yl)-1H-indol-7-yl)-4-(1,1-dioxido-3,6-dihydro-2H-thiopyran-4-yl)isoindolin-1-one] | < 10
14 | Cc1cnc(Nc2cc(C)n(C)n2)nc1-c1c[nH]c2c(N3Cc4c(cccc4-c4ccnc(C#N)c4)C3=O)cccc12 [Example 469, 4-(2-(3-(2-((1,5-dimethyl-1H-pyrazol-3-yl)amino)-5-methylpyrimidin-4-yl)-1H-indol-7-yl)-1-oxoisoindolin-4-yl)picolinonitrile] | < 10
15 | Cc1cnc(Nc2cc(C)n(C)n2)nc1-c1c[nH]c2c(N3Cc4c(cccc4-c4ccc(C#N)nc4)C3=O)cccc12 [Example 470, 5-(2-(3-(2-((1,5-dimethyl-1H-pyrazol-3-yl)amino)-5-methylpyrimidin-4-yl)-1H-indol-7-yl)-1-oxoisoindolin-4-yl)picolinonitrile] | < 10
16 | Cc1cnc(Nc2cc(C)n(C)n2)nc1-c1c[nH]c2c(N3Cc4c(cccc4-c4ccncc4CO)C3=O)cccc12 [Example 471] | < 10

The remaining lines, values ahead:

Row | IC50 [nM] | SMILES
17 | < 10 | Cc1cnc(Nc2cc(C)n(C)n2)nc1-c1c[nH]c2c(N3Cc4c(cccc4-c4ccnc(CO)c4)C3=O)cccc12 [Example 472, 2-(3-(2-((1,5-dimethyl-1H-pyrazol-3-yl)amino)-5-methylpyrimidin-4-yl)-1H-indol-7-yl)-4-(2-(hydroxymethyl)pyridin-4-yl)isoindolin-1-one]
18 | < 10 | Cc1cnc(Nc2cc(C)n(C)n2)nc1-c1c[nH]c2c(N3Cc4c(cccc4-c4ccnc(C(N)=O)c4)C3=O)cccc12 [Example 473, 4-(2-(3-(2-((1,5-dimethyl-1H-pyrazol-3-yl)amino)-5-methylpyrimidin-4-yl)-1H-indol-7-yl)-1-oxoisoindolin-4-yl)picolinamide]
19 | < 10 | Cc1cnc(Nc2cc(C)n(C)n2)nc1-c1c[nH]c2c(N3Cc4c(cccc4-c4ccc(C(N)=O)nc4)C3=O)cccc12 [Example 474, 5-(2-(3-(2-((1,5-dimethyl-1H-pyrazol-3-yl)amino)-5-methylpyrimidin-4-yl)-1H-indol-7-yl)-1-oxoisoindolin-4-yl)picolinamide]
20 | < 10 | Cc1cnc(Nc2cc(C)n(C)n2)nc1-c1c[nH]c2c(N3Cc4c(cccc4-c4ccnc(N(C)C)c4)C3=O)cccc12 [Example 475, 2-(3-(2-((1,5-dimethyl-1H-pyrazol-3-yl)amino)-5-methylpyrimidin-4-yl)-1H-indol-7-yl)-4-(2-(dimethylamino)pyridin-4-yl)isoindolin-1-one]
21 | < 10 | CNc1cc(-c2cccc3c2CN(c2cccc4c(-c5nc(Nc6cc(C)n(C)n6)ncc5C)c[nH]c24)C3=O)ccn1 [Example 476, 2-(3-(2-((1,5-dimethyl-1H-pyrazol-3-yl)amino)-5-methylpyrimidin-4-yl)-1H-indol-7-yl)-4-(2-(methylamino)pyridin-4-yl)isoindolin-1-one]
22 | < 10 | Cc1cncc(-c2cccc3c2CN(c2cccc4c(-c5nc(Nc6cc(C)n(C)n6)ncc5C)c[nH]c24)C3=O)c1 [Example 477, 2-(3-(2-((1,5-dimethyl-1H-pyrazol-3-yl)amino)-5-methylpyrimidin-4-yl)-1H-indol-7-yl)-4-(5-methylpyridin-3-yl)isoindolin-1-one]
23 | < 10 | Cc1cnc(Nc2cc(C)n(C)n2)nc1-c1c[nH]c2c(N3Cc4c(cccc4-c4cncc(F)c4)C3=O)cccc12 [Example 478, 2-(3-(2-((1,5-dimethyl-1H-pyrazol-3-yl)amino)-5-methylpyrimidin-4-yl)-1H-indol-7-yl)-4-(5-fluoropyridin-3-yl)isoindolin-1-one]
24 | < 10 | Cc1cc(-c2cccc3c2CN(c2cccc4c(-c5nc(Nc6cc(C)n(C)n6)ncc5C)c[nH]c24)C3=O)cc(C)n1 [Example 479, 2-(3-(2-((1,5-dimethyl-1H-pyrazol-3-yl)amino)-5-methylpyrimidin-4-yl)-1H-indol-7-yl)-4-(2,6-dimethylpyridin-4-yl)isoindolin-1-one]
25 | < 10 | Cc1cnc(Nc2cc(C)n(C)n2)nc1-c1c[nH]c2c(N3Cc4c(-c5ccncc5)ccc(F)c4C3=O)cccc12 [Example 480, 2-(3-(2-((1,5-dimethyl-1H-pyrazol-3-yl)amino)-5-methylpyrimidin-4-yl)-1H-indol-7-yl)-7-fluoro-4-(pyridin-4-yl)isoindolin-1-one]
26 | < 10 | COc1cc(-c2ccc(F)c3c2CN(c2cccc4c(-c5nc(Nc6cc(C)n(C)n6)ncc5C)c[nH]c24)C3=O)ccn1 [Example 481, 2-(3-(2-((1,5-dimethyl-1H-pyrazol-3-yl)amino)-5-methylpyrimidin-4-yl)-1H-indol-7-yl)-7-fluoro-4-(2-methoxypyridin-4-yl)isoindolin-1-one]
27 | < 10 | CNc1cc(-c2ccc(F)c3c2CN(c2cccc4c(-c5nc(Nc6cc(C)n(C)n6)ncc5C)c[nH]c24)C3=O)ccn1 [Example 482, 2-(3-(2-((1,5-dimethyl-1H-pyrazol-3-yl)amino)-5-methylpyrimidin-4-yl)-1H-indol-7-yl)-7-fluoro-4-(2-(methylamino)pyridin-4-yl)isoindolin-1-one]
28 | < 10 | Cc1cnc(Nc2cc(C)n(C)n2)nc1-c1c[nH]c2c(N3Cc4c(-c5ccnc(N(C)C)c5)ccc(F)c4C3=O)cccc12 [Example 483, 2-(3-(2-((1,5-dimethyl-1H-pyrazol-3-yl)amino)-5-methylpyrimidin-4-yl)-1H-indol-7-yl)-4-(2-(dimethylamino)pyridin-4-yl)-7-fluoroisoindolin-1-one]
